According to patent US11485720B2, “Anti-infective agents” (University of Dundee, priority 2016, dated 2022):

Assays:
[1] = molecular target: T1, Plasmodium falciparum lysyl t-RNA synthetase (Pf-KRS1) (Plasmodium falciparum, UniProt Q8IDJ8); assay: Pf-KRS1 inhibition biochemical assay (Kinase-Glo, ATP depletion); details: read-out: Pf-KRS pIC50 (converted)
T1 construct: Pf KRS1-; made in house; host or cells: E. coli BL21 (DE3)
Method in brief: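 Recombinant Pf-KRS1 (75 nM working concentration) in HEPES/KOH/MgCl2/KCl buffer with 3 μM ATP, 60 μM L-lysine, 0.4 mg/ml yeast tRNA and pyrophosphatase; compounds at 50 μM–2.5 nM final. Reaction ran 5 h at room temperature, then remaining ATP was read by Kinase-Glo luminescence. IC50 came from nonlinear fits of % inhibition against controls.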

[2] = system: Plasmodium falciparum strain 3D7; assay: Plasmodium falciparum 3D7 in vitro growth inhibition (SYBRgreen I); format: cell-based; details: Plasmodium falciparum, 3D7; read-out: pEC50 for Pf 3D7 (converted)
Method in brief: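 10-point, 1-in-3 dilution series from a top concentration of 50 μM; parasite growth read as SYBRgreen I fluorescence on double-stranded DNA (ex 485/em 528 nm). EC50 = concentration causing 50% parasite death, from at least 3 independent experiments.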

T1 sequence (Q8IDJ8 entry or part of it, looked up, natural form): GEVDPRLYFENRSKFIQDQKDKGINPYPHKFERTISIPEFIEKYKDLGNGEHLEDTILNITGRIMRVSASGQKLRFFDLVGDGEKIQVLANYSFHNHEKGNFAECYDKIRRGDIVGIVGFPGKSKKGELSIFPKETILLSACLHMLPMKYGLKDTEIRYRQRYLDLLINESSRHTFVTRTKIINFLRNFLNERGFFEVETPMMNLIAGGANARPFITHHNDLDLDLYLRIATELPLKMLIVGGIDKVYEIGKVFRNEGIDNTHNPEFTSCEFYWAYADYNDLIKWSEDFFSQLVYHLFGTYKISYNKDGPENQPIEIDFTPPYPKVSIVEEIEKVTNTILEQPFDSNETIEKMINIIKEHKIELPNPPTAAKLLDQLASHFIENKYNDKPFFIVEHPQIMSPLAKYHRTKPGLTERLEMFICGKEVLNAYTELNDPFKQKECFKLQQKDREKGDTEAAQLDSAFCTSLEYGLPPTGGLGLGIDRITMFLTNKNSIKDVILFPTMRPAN

## O=C(NCC1CCCCC1)c1cc(=O)c2cc(F)cc(O)c2o1 [Example 70, N-(cyclohexylmethyl)-6-fluoro-8-hydroxy-4-oxo-4H-chromene-2-carboxamide]
[1]
  IC50: 50.1 nM
[2]
  EC50: 100 nM
